In brackets after ≈: the same amount, converted by molar mass.
How the values were obtained:
Type in all cases: cell-based
Botrtyis cinerea (Bc) = assay: In vitro pathogen growth inhibition assay, Bc; conditions: 48 h, ≥90% inhibition; 48 hours vs 2% DMSO control; read-out: Compound Concentration (ppm) sufficient for ≥90% inhibition of growth, Bc
In short: (§1)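 Value reported is the compound concentration reaching ≥90% growth inhibition, from OD readings at 24 and 48 h after blank subtraction, confirmed visually. Inoculum was spores diluted in 17% V8 medium, except Rs, using 1.5 mm mycelial plugs in ¼ PDB; actual compound concentration corrected via OD600.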

[1] = test system: Collectotrichum graminicola (Cg); assay: In vitro pathogen growth inhibition assay, Cg; conditions: 48 h, ≥90% inhibition; 48 hours vs 2% DMSO control; read-out: Compound Concentration (ppm) sufficient for ≥90% inhibition of growth, Cg
In short: as §1

Diplodia maydis (Dm) = assay: In vitro pathogen growth inhibition assay, Dm; conditions: Stenocarpella maydis, 48 h, ≥90% inhibition; 48 hours vs 2% DMSO control; read-out: Compound Concentration (ppm) sufficient for ≥90% inhibition of growth, Dm
In short: as §1

[2] = test system: Fusarium moniliforme (Fm); assay: In vitro pathogen growth inhibition assay, Fm; conditions: Fusarium verticillioides; ≥90% inhibition; 48 hours vs 2% DMSO control; read-out: Compound Concentration (ppm) sufficient for ≥90% inhibition of growth, Fm
In short: as §1

[3] = test system: Fusarium virguliforme (Fv); assay: In vitro pathogen growth inhibition assay, Fv; conditions: ≥90% inhibition, 48 hours vs 2% DMSO control, read-out: Compound Concentration (ppm) sufficient for ≥90% inhibition of growth, Fv
In short: as §1

[4] = test system: Phytophthora capsici (Pc); assay: In vitro pathogen growth inhibition assay, Pc; conditions: 48 h, ≥90% inhibition, 48 hours vs 2% DMSO control, read-out: Compound Concentration (ppm) sufficient for ≥90% inhibition of growth, Pc
In short: as §1

Rhizoctonia solani (Rs) = assay: In vitro pathogen growth inhibition assay, Rs (mycelial plugs); conditions: Rhizoctonia solani, 48 h, ≥90% inhibition; mycelial plugs; 48 hours vs 2% DMSO control; read-out: Compound Concentration (ppm) sufficient for ≥90% inhibition of growth, Rs
In short: as §1

Septoria tritici (St) = assay: In vitro pathogen growth inhibition assay, St; conditions: Zymoseptoria tritici, 48 h, ≥90% inhibition; 48 hours vs 2% DMSO control; read-out: Compound Concentration (ppm) sufficient for ≥90% inhibition of growth, St
In short: as §1

[5] = test system: Saccharomyces cerevisiae (Sc); assay: Yeast growth inhibition assay; conditions: Saccharomyces cerevisiae, ≥75% inhibition, read-out: Compound Concentration (ppm) sufficient for ≥75% inhibition, Sc
Description: Both tables list the concentration of each compound that was sufficient to ≥90% inhibition of growth for each of the fungal pathogens listed above. In addition, some of compounds were tested in a yeast growth inhibition assay for Saccharomyces cerevisiae (Sc). Table 2 lists the concentration of the tested compound that was sufficient to ≥75% inhibition of Saccharomyces cerevisiae (Sc).

Structure (SMILES)	IC90 (Botrtyis cinerea (Bc)) [µg/mL]	IC90 [1] [µg/mL]	IC90 (Diplodia maydis (Dm)) [µg/mL]	IC90 [2] [µg/mL]	IC90 [3] [µg/mL]	IC90 [4] [µg/mL]	IC90 (Rhizoctonia solani (Rs)) [µg/mL]	IC90 (Septoria tritici (St)) [µg/mL]	IC75 [5] [µg/mL]
COc1ccccc1[C@H](Cn1c(=O)n(C(C)(C)C(=O)N2CCOCC2)c(=O)c2c(C)c(-c3ncco3)sc21)OC(C)C [Compound I-143]	2 (≈ 3.35 µM)	50 (≈ 83.8 µM)	10 (≈ 16.8 µM)	2 (≈ 3.35 µM)	≥ 10	> 50	> 50	> 50	11 (≈ 18.4 µM)
COc1ccccc1[C@H](Cn1c(=O)n(C(C)(C)C(=O)NC(C)C)c(=O)c2c(C)c(-c3ncco3)sc21)O[C@H]1CC[C@@H](O)CC1 [Compound I-012]	0.4 (≈ 0.64 µM)	10 (≈ 16 µM)	2 (≈ 3.2 µM)	0.08 (≈ 0.128 µM)	2 (≈ 3.2 µM)	> 50	50 (≈ 80 µM)	≥ 10	0.14 (≈ 0.224 µM)
CCNC(=O)C(C)(C)n1c(=O)c2c(C)c(-c3ncco3)sc2n(C[C@H](OC(C)C)c2ccccc2OC)c1=O [Compound I-144]	10 (≈ 18 µM)	50 (≈ 90.1 µM)	10 (≈ 18 µM)	2 (≈ 3.61 µM)	10 (≈ 18 µM)	> 50	> 50	> 50	11 (≈ 19.8 µM)
CCOC(=O)c1sc2c(c1C)c(=O)n(C(C)(C)C(=O)N1CCCC1)c(=O)n2C[C@H](OC(C)C)c1ccccc1OC [Compound I-007]	0.4 (≈ 0.683 µM)	0.4 (≈ 0.683 µM)	0.4 (≈ 0.683 µM)	0.08 (≈ 0.137 µM)	0.4 (≈ 0.683 µM)	> 50	0.08 (≈ 0.137 µM)	≥ 2	0.4 (≈ 0.683 µM)
COc1ccccc1[C@H](Cn1c(=O)n(C(C)(C)C(=O)N2CCOCC2)c(=O)c2c(C)c(-c3ncco3)sc21)OC1CCOCC1 [Compound I-152]	10 (≈ 15.7 µM)	50 (≈ 78.3 µM)	50 (≈ 78.3 µM)	2 (≈ 3.13 µM)	> 50	> 50	> 50	> 50	> 33
CCNC(=O)C(C)(C)n1c(=O)c2c(C)c(C(=O)OCC)sc2n(C[C@H](OC(C)C)c2ccccc2OC)c1=O [Compound I-108]	2 (≈ 3.57 µM)	10 (≈ 17.9 µM)	10 (≈ 17.9 µM)	0.4 (≈ 0.715 µM)	2 (≈ 3.57 µM)	> 50	50 (≈ 89.3 µM)	> 50	11.1 (≈ 19.8 µM)
COc1ccccc1[C@H](Cn1c(=O)n(C(C)(C)C(=O)N2CCCCC2)c(=O)c2c(C)c(-c3ncco3)sc21)O[C@H]1CC[C@@H](O)CC1 [Compound I-110]	2 (≈ 3.07 µM)	> 50	10 (≈ 15.4 µM)	0.4 (≈ 0.615 µM)	2 (≈ 3.07 µM)	> 50	50 (≈ 76.8 µM)	> 50	33.3 (≈ 51.2 µM)
COc1ccccc1[C@H](Cn1c(=O)n(C(C)(C)C(=O)N2CCCCC2)c(=O)c2c(C)c(-c3ncco3)sc21)OC1CCOCC1 [Compound I-004]	0.4 (≈ 0.628 µM)	2 (≈ 3.14 µM)	2 (≈ 3.14 µM)	0.08 (≈ 0.126 µM)	2 (≈ 3.14 µM)	> 50	10 (≈ 15.7 µM)	> 10	3.7 (≈ 5.81 µM)
COc1ccccc1[C@H](Cn1c(=O)n(C(C)(C)C(=O)NC2CCC2)c(=O)c2c(C)c(-c3ncco3)sc21)OC1CCOCC1 [Compound I-099]	10 (≈ 16.1 µM)	50 (≈ 80.3 µM)	10 (≈ 16.1 µM)	0.4 (≈ 0.642 µM)	50 (≈ 80.3 µM)	> 50	50 (≈ 80.3 µM)	> 50	33 (≈ 53 µM)
CCOC(=O)c1sc2c(c1C)c(=O)n(C(C)(C)C(N)=O)c(=O)n2C[C@H](OC(C)C)c1ccccc1OC [Compound I-155]	2 (≈ 3.76 µM)	50 (≈ 94.1 µM)	10 (≈ 18.8 µM)	2 (≈ 3.76 µM)	10 (≈ 18.8 µM)	> 50	50 (≈ 94.1 µM)	> 50	33.3 (≈ 62.6 µM)
CCOC(=O)c1sc2c(c1C)c(=O)n(C(C)(C)C(=O)N1CCCCC1)c(=O)n2C[C@H](OC(C)C)c1ccccc1OC [Compound I-006]	0.4 (≈ 0.667 µM)	0.4 (≈ 0.667 µM)	0.4 (≈ 0.667 µM)	0.08 (≈ 0.133 µM)	0.4 (≈ 0.667 µM)	> 50	0.4 (≈ 0.667 µM)	≥ 2	1.2 (≈ 2 µM)
CCOC(=O)c1sc2c(c1C)c(=O)n(C(C)(C)C(=O)O)c(=O)n2C[C@H](OC(C)C)c1ccccc1OC [Compound I-153]	2 (≈ 3.76 µM)	> 50	50 (≈ 93.9 µM)	2 (≈ 3.76 µM)	> 50	> 50	50 (≈ 93.9 µM)	> 50	> 33.3
COc1ccccc1[C@H](Cn1c(=O)n(C(C)(C)C(=O)N2CCCCC2)c(=O)c2c(C)c(-c3ncco3)sc21)OC1CCC(=O)CC1 [Compound I-106]	2 (≈ 3.08 µM)	10 (≈ 15.4 µM)	2 (≈ 3.08 µM)	0.4 (≈ 0.617 µM)	2 (≈ 3.08 µM)	> 50	50 (≈ 77.1 µM)	> 50	33.3 (≈ 51.3 µM)
COc1ccccc1[C@H](Cn1c(=O)n(C(C)(C)C(N)=O)c(=O)c2c(C)c(-c3ncco3)sc21)OC1CCOCC1 [Compound I-145]	50 (≈ 87.9 µM)	50 (≈ 87.9 µM)	50 (≈ 87.9 µM)	2 (≈ 3.52 µM)	> 50	> 50	> 50	> 50	> 33
COc1ccccc1[C@H](Cn1c(=O)n(C(C)(C)C(=O)N2CCCC2)c(=O)c2c(C)c(-c3ncco3)sc21)OC1CCOCC1 [Compound I-005]	2 (≈ 3.21 µM)	2 (≈ 3.21 µM)	2 (≈ 3.21 µM)	0.08 (≈ 0.128 µM)	2 (≈ 3.21 µM)	> 50	0.4 (≈ 0.642 µM)	> 10	0.4 (≈ 0.642 µM)
COc1ccc(F)cc1[C@H](Cn1c(=O)n(C(C)(C)C(N)=O)c(=O)c2c(C)c(C3CCC3)sc21)OC1CCOCC1 [Compound I-147]	10 (≈ 17.4 µM)	50 (≈ 87.2 µM)	> 50	2 (≈ 3.49 µM)	2 (≈ 3.49 µM)	> 50	50 (≈ 87.2 µM)	> 50	33 (≈ 57.5 µM)
CCOC(=O)c1sc2c(c1C)c(=O)n(C(C)(C)C(=O)NC(C)C)c(=O)n2C[C@H](OC(C)C)c1ccccc1OC [Compound I-009]	0.4 (≈ 0.697 µM)	2 (≈ 3.49 µM)	0.4 (≈ 0.697 µM)	0.08 (≈ 0.139 µM)	0.4 (≈ 0.697 µM)	> 50	10 (≈ 17.4 µM)	> 50	3.7 (≈ 6.45 µM)
COc1ccccc1[C@H](Cn1c(=O)n(C(C)(C)C(=O)NC2CCC2)c(=O)c2c(C)c(-c3ncco3)sc21)OC(C)C [Compound I-098]	2 (≈ 3.44 µM)	10 (≈ 17.2 µM)	2 (≈ 3.44 µM)	0.4 (≈ 0.689 µM)	10 (≈ 17.2 µM)	> 50	10 (≈ 17.2 µM)	> 50	11 (≈ 18.9 µM)
COc1ccc(F)cc1[C@H](Cn1c(=O)n(C(C)(C)C(N)=O)c(=O)c2c(C)c(-c3ncco3)sc21)OCC1CCC(O)CC1 (stereo partly drawn) [Compound I-104]	2 (≈ 3.25 µM)	> 50	10 (≈ 16.3 µM)	0.4 (≈ 0.651 µM)	10 (≈ 16.3 µM)	> 10	10 (≈ 16.3 µM)	> 50	11 (≈ 17.9 µM)
CCNC(=O)C(C)(C)n1c(=O)c2c(C)c(-c3ncco3)sc2n(C[C@H](O[C@H]2CC[C@@H](O)CC2)c2ccccc2OC)c1=O [Compound I-010]	0.4 (≈ 0.655 µM)	50 (≈ 81.9 µM)	≥ 2	0.08 (≈ 0.131 µM)	2 (≈ 3.27 µM)	> 50	50 (≈ 81.9 µM)	> 50	0.4 (≈ 0.655 µM)
COc1ccccc1[C@H](Cn1c(=O)n(C(C)(C)C(=O)N2CCCC2)c(=O)c2c(C)c(-c3ncco3)sc21)O[C@H]1CC[C@@H](O)CC1 [Compound I-111]	2 (≈ 3.14 µM)	10 (≈ 15.7 µM)	10 (≈ 15.7 µM)	0.4 (≈ 0.628 µM)	2 (≈ 3.14 µM)	> 50	10 (≈ 15.7 µM)	50 (≈ 78.5 µM)	3.7 (≈ 5.81 µM)
COc1ccccc1[C@H](Cn1c(=O)n(C(C)(C)C(=O)NC(C)C)c(=O)c2c(C)c(-c3ncco3)sc21)OC1CCC(=O)CC1 [Compound I-013]	0.4 (≈ 0.642 µM)	10 (≈ 16.1 µM)	0.4 (≈ 0.642 µM)	0.08 (≈ 0.128 µM)	2 (≈ 3.21 µM)	> 50	10 (≈ 16.1 µM)	≥ 10	0.14 (≈ 0.225 µM)

Reference: patent US10941157B2, “Pesticidal compositions and uses thereof” (Gilead Apollo, LLC, priority 2015, dated 2021)
